Results published in patent US11660293B2, “Substituted 2-azabicyclo[3.1.1]heptane and 2-azabicyclo[3.2.1]octane derivatives as orexin receptor antagonists” (Chronos Therapeutics Limited, priority 2017, dated 2023).
Read-outs that look alike come from different tables or passages of the source.

Assays:
[1] = molecular target: human Orexin type 1 receptors (Homo sapiens (Human), UniProt O43613); test: Scintillation Proximity Assay (SPA) binding assay, [3H]SB-674042 displacement, CHO-hOX1 membranes; conditions: for Ki: read-out: OX1 pKi (SPA binding) (converted)
[2] = molecular target: human Orexin type 2 receptors (Homo sapiens (Human), UniProt O43614); test: Scintillation Proximity Assay (SPA) binding assay, [3H]EMPA displacement, HEK-hOX2 membranes; conditions: for Ki: read-out: OX2 pKi (SPA binding) (converted)
Chain of human Orexin type 2 receptors (O43614 whole entry): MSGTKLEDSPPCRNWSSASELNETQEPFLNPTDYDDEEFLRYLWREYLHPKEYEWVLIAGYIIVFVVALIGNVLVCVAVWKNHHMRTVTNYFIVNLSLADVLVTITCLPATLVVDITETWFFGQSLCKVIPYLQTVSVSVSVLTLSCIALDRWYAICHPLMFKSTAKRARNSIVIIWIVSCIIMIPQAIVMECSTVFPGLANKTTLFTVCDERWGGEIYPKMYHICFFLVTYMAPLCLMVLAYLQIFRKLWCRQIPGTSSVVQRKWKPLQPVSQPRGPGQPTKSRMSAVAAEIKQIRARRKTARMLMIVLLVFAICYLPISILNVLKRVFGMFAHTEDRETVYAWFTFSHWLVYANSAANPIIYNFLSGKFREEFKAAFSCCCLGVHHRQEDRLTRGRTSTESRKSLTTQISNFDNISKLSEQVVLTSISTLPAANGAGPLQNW

Chain of human Orexin type 1 receptors (O43613 whole entry): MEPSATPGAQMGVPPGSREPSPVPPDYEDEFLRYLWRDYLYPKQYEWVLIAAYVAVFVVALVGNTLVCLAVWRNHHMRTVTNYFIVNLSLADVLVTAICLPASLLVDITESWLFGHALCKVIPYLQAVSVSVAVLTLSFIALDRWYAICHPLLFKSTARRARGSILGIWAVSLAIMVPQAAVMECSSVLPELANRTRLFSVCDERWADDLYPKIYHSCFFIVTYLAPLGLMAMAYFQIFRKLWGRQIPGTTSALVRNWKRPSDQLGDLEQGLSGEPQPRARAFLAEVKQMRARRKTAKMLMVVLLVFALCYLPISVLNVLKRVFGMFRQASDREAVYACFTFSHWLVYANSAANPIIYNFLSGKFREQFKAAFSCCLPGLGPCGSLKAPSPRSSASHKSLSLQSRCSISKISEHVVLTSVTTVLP

SMILES	OX1 pKi (SPA binding) ([1]; Table 2, [3H]SB-674042 2 nM)	OX2 pKi (SPA binding) ([2]; Table 2, [3H]EMPA 2 nM)	also measured
Cc1ccc(-n2nccn2)c(C(=O)N2C3CC(C3)[C@@H](C)C2COc2ccc(F)cc2)n1 (stereo partly drawn) [Example 95, cis-3-[(4-fluorophenoxy)methyl]-4-methyl-2-[6-methyl-3-(2H-1,2,3-triazol-2-yl)pyridine-2-carbonyl]-2-azabicyclo[3.1.1]heptane]	–	–	OX1 pKi (SPA binding) ([1]; Table 1, [3H]SB-674042 2 nM): 8.09; OX2 pKi (SPA binding) ([2]; Table 1, [3H]EMPA 2 nM): 6.6
C[C@@H]1C2CC(C2)N(C(=O)c2cc(Cl)ccc2-n2nccn2)C1CNc1cnc(C(F)(F)F)cn1 (mixture of isomers) [Example 203, cis-N-({2-[5-chloro-2-(2H-1,2,3-triazol-2-yl)benzoyl]-4-methyl-2-azabicyclo[3.1.1]heptan-3-yl}methyl)-5-(trifluoromethyl)pyrazin-2-amine]	8.17	5.05	–
C[C@@H]1C2CC(C2)N(C(=O)c2cc(F)ccc2-n2nccn2)C1CNc1ccc(C(F)(F)F)cn1 (single isomer, unassigned) [Example 192, N-({(3R,4S) or (3S,4R)2-[5-fluoro-2-(2H-1,2,3-triazol-2-yl)benzoyl]-4-methyl-2-azabicyclo[3.1.1]heptan-3-yl}methyl)-5-(trifluoromethyl)pyridin-2-amine]	8.13	5.19	–
Cc1ccc(-c2nccs2)c(C(=O)N2C3CC(C3)[C@H](C)C2COc2ccc(F)cc2)c1 (mixture of isomers) [Example 101, trans-3-[(4-fluorophenoxy)methyl]-4-methyl-2-[5-methyl-2-(1,3-thiazol-2-yl)benzoyl]-2-azabicyclo[3.1.1]heptane]	–	–	OX1 pKi (SPA binding) ([1]; Table 1, [3H]SB-674042 2 nM): 8.02; OX2 pKi (SPA binding) ([2]; Table 1, [3H]EMPA 2 nM): 6.15
Cc1ccc(-n2nccn2)c(C(=O)N2C3CC(C3)[C@@H](C)C2CNc2cnc3cc(F)ccc3n2)n1 (mixture of isomers) [Example 198, cis-6-fluoro-N-({4-methyl-2-[6-methyl-3-(2H-1,2,3-triazol-2-yl)pyridine-2-carbonyl]-2-azabicyclo[3.1.1]heptan-3-yl}methyl)quinoxalin-2-amine]	8.07	6.27	–
Cc1nc(C(=O)N2C3CC(C3)[C@@H](C)C2COc2ccc(F)cc2)c(-c2ncccn2)s1 (stereo partly drawn) [Example 94, cis-3-[(4-fluorophenoxy)methyl]-4-methyl-2-[2-methyl-5-(pyrimidin-2-yl)-1,3-thiazole-4-carbonyl]-2-azabicyclo[3.1.1]heptane]	–	–	OX1 pKi (SPA binding) ([1]; Table 1, [3H]SB-674042 2 nM): 8.04; OX2 pKi (SPA binding) ([2]; Table 1, [3H]EMPA 2 nM): 6.35
C[C@@H]1C2CC(C2)N(C(=O)c2cc(Cl)ccc2-n2nccn2)C1CNc1nc2cccnc2o1 (mixture of isomers) [Example 242, cis-N-({2-[5-chloro-2-(2H-1,2,3-triazol-2-yl)benzoyl]-4-methyl-2-azabicyclo[3.1.1]heptan-3-yl}methyl)-[1,3]oxazolo[5,4-b]pyridin-2-amine]	8.1	5.14	–
Cc1ccc(-n2nccn2)c(C(=O)N2C3CC(C3)[C@@H](C)C2CNc2cnc(C(F)(F)F)cn2)n1 (single isomer, unassigned) [Example 166, N-{[(3S,4R) or (3R,4S)-4-methyl-2-[6-methyl-3-(2H-1,2,3-triazol-2-yl)pyridine-2-carbonyl]-2-azabicyclo[3.1.1]heptan-3-yl]methyl}-5-(trifluoromethyl)pyrazin-2-amine]	6.99	4.29	–
Cc1ccc(-n2nccn2)c(C(=O)N2C3CC(C3)[C@H](C)C2COc2ccc(Cl)cn2)n1 (stereo partly drawn) [Example 102, trans-3-{[(5-chloropyridin-2-yl)oxy]methyl}-4-methyl-2-[6-methyl-3-(2H-1,2,3-triazol-2-yl)pryidine-2-carbonyl]-2-azabicyclo[3.1.1]heptane]	–	–	OX1 pKi (SPA binding) ([1]; Table 1, [3H]SB-674042 2 nM): 7.23; OX2 pKi (SPA binding) ([2]; Table 1, [3H]EMPA 2 nM): 5.71
Cc1ccc(-c2ncccn2)c(C(=O)N2C3CC(C3)[C@@H](C)C2CNc2cnc(C(F)(F)F)cn2)n1 (single isomer, unassigned) [Example 249, N-{[(3S,4R) or (3R,4S)-4-methyl-2-[6-methyl-3-(pyrimidin-2-yl)pyridine-2-carbonyl]-2-azabicyclo[3.1.1]heptan-3-yl]methyl}-5-(trifluoromethyl)pyrazin-2-amine]	5.12	–	Ki ([2]; Table 2, [3H]EMPA 2 nM): > 31600 nM
Cc1nc(C(=O)N2C3CC(C3)[C@@H](C)C2COc2ccc(F)cc2)c(-n2nccn2)s1 (stereo partly drawn) [Example 140, cis-3-[(4-flurophenoxy)methyl]-4-methyl-2-[2-methyl-5-(2H-1,2,3-triazol-2-yl)-1,3-thiazole-4-carbonyl]-2-azabicyclo[3.1.1]heptane]	7.49	6.22	–
Cc1ccc(-n2nccn2)c(C(=O)N2C3CC(C3)[C@@H](C)C2CNc2nc3ccccc3o2)n1 (stereo in doubt) [Example 225, cis-N-({4-methyl-2-[6-methyl-3-(2H-1,2,3-triazol-2-yl)pyridine-2-carbonyl]-2-azabicyclo[3.1.1]heptan-3-yl}methyl)-1,3-benzoxazol-2-amine]	8.32	5.22	–
C[C@@H]1C2CC(C2)N(C(=O)c2cc(Cl)ccc2-n2nccn2)C1CNc1nc2ccc(F)cc2s1 (single isomer, unassigned) [Example 173, N-({(3R,4S) or (3S,4R)2-[5-chloro-2-(2H-1,2,3-triazol-2-yl)benzoyl]-4-methyl-2-azabicyclo[3.1.1]heptan-3-yl}methyl)-6-fluoro-1,3-benzothiazol-2-amine]	9.36	6.53	–
Cc1ccc(-n2nccn2)c(C(=O)N2C3CC(C3)[C@@H](C)C2CNc2ccc(C(F)(F)F)cn2)n1 (mixture of isomers) [Example 181, cis-N-({4-methyl-2-[6-methyl-3-(2H-1,2,3-triazol-2-yl)pyridine-2-carbonyl]-2-azabicyclo[3.1.1]heptan-3-yl}methyl)-5-(trifluoromethyl)pyridin-2-amine]	8.09	5.09	–
C[C@@H]1C2CC(C2)N(C(=O)c2cc(C#N)ccc2-n2nccn2)C1CNc1nc2ccc(F)cc2s1 (single isomer, unassigned) [Example 177, 3-[(3R,4S) or (3S,4R)-3-{[(6-fluoro-1,3-benzothiazol-2-yl)amino]methyl}-4-methyl-2-azabicyclo[3.1.1]heptane-2-carbonyl]-4-(2H-1,2,3-triazol-2-yl)benzonitrile]	8.95	6.46	–
Cc1nc(C(=O)N2C3CC(C3)[C@@H](C)[C@@H]2COc2cc3ccccc3cn2)c(-c2ccccc2)s1 (single isomer, unassigned) [Example 86, 3-{[(3R,4R or 3S,4S)-4-methyl-2-(2-methyl-5-phenyl-1,3-thiazole-4-carbonyl)-2-azabicyclo[3.1.1]heptan-3-yl]methoxy}isoquinoline]	–	–	Ki ([1]; Table 1, [3H]SB-674042 2 nM): 89.1 nM; Ki ([2]; Table 1, [3H]EMPA 2 nM): 1290 nM
C[C@@H]1C2CC(C2)N(C(=O)c2cc(Cl)ccc2-n2nccn2)C1CNc1ncc(C(F)(F)F)cn1 (single isomer, unassigned) [Example 241, N-{[(3R,4S) or (3S,4R)-2-[5-chloro-2-(2H-1,2,3-triazol-2-yl)benzoyl]-4-methyl-2-azabicyclo[3.1.1]heptan-3-yl]methyl}-5-(trifluoromethyl)pyrimidin-2-amine]	8.27	5.59	–
Cc1ccc(-c2nccs2)c(C(=O)N2C3CC(C3)[C@H](C)C2COc2ccc(F)cc2)n1 (single isomer, unassigned) [Example 108, (3S,4S or 3R,4R)-3-[(4-fluorophenoxy)methyl]-4-methyl-2-[6-methyl-3-(1,3-thiazol-2-yl)pyridine-2-carbonyl]-2-azabicyclo[3.1.1]heptane]	–	–	Ki ([1]; Table 1, [3H]SB-674042 2 nM): 3.24 nM; Ki ([2]; Table 1, [3H]EMPA 2 nM): 407 nM
Cc1ccc(-n2nccn2)c(C(=O)N2C3CC(C3)[C@@H](C)C2CNc2nc3ccc(F)cc3s2)n1 (single isomer, unassigned) [Example 154, 6-fluoro-N-{[(3R,4S) or (3S,4R)-4-methyl-2-[6-methyl-3-(2H-1,2,3-triazol-2-yl)pyridine-2-carbonyl]-2-azabicyclo[3.1.1]heptan-3-yl]methyl}-1,3-benzothiazol-2-amine]	9.06	6.23	–
Cc1ccc(-n2nccn2)c(C(=O)N2C3CC(C3)[C@H](C)C2COc2ccc(Cl)cc2)n1 (single isomer, unassigned) [Example 119, (3S,4S) or (3R,4R)-3-[(4-chlorophenoxy)methyl]-4-methyl-2-[6-methyl-3-(2H-1,2,3-triazol-2-yl)pyridin-2-carbonyl]-2-azabicyclo[3.1.1]heptane]	7.08	5.77	–
C[C@@H]1C2CC(C2)N(C(=O)c2cc(Cl)ccc2-n2nccn2)C1CNc1nc2cccnc2o1 (single isomer, unassigned) [Example 244, N-{[(3R,4S) or (3S,4R)-2-[5-chloro-2-(2H-1,2,3-triazol-2-yl)benzoyl]-4-methyl-2-azabicyclo[3.1.1]heptan-3-yl]methyl}-[1,3]oxazolo[5,4-b]pyridin-2-amine]	8.25	5.18	–
Cc1ccc(-c2nccs2)c(C(=O)N2C3CC(C3)[C@H](C)C2COc2ccc(F)cc2)n1 (mixture of isomers) [Example 106, trans-3-[(4-fluorophenoxy)methyl]-4-methyl-2-[6-methyl-3-(1,3-thiazol-2-yl)pyridine-2-carbonyl]-2-azabicyclo[3.1.1]heptane]	–	–	OX1 pKi (SPA binding) ([1]; Table 1, [3H]SB-674042 2 nM): 8.16; OX2 pKi (SPA binding) ([2]; Table 1, [3H]EMPA 2 nM): 6.12
C[C@@H]1C2CC(C2)N(C(=O)c2nn(C)cc2-c2ncccn2)C1CNc1cnc(C(F)(F)F)cn1 (mixture of isomers) [Example 245, cis-N-({4-methyl-2-[1-methyl-4-(pyrimidin-2-yl)-1H-pyrazole-3-carbonyl]-2-azabicyclo[3.1.1]heptan-3-yl}methyl)-5-(trifluoromethyl)pyrazin-2-amine]	7.55	4.49	–
